{"source": "patent US20100303916A1", "about": "“ENHANCED DRUG DELIVERY WITH ORIENTABLE PARTICLES” (THE GOVERNORS OF THE UNIVERSITY OF ALBERTA, priority 2007, published 2010)", "assay": "Aerosol particle size distribution and number concentration by SEM", "type": "physicochemical", "conditions": "mean ± SD, n = 9 SEM images", "protocol": "The particle size distribution and number concentration of the CA and CA/magnetite aerosols were determined from samples taken from the delivery apparatus used for the aerosol deposition experiments. Suspensions of CA and CA/magnetite were nebulized, and drawn by vacuum pump along with ambient, drying air at 10 l/min. into a large volume (˜16 1) delivery chamber for 1.5 minutes. With reference to FIG. 5, after filling the delivery chamber 40 with aerosol, valves 46, 48 connecting to the nebulizer 42 and the vacuum pump 44, respectively, were closed, and a butterfly valve 50 at the base 52 of the chamber 40 was opened. Aerosol was then sampled from the base 52 of the chamber 40 onto a 0.2 μm pore polycarbonate membrane (Isopore GTTP04700; Millipore, Billerica, Mass., not shown) for 1 hour at a flow rate of 0.21 l/min., maintained through the delivery chamber using dry, compressed air and a needle valve, and monitored using a low flow rate rotameter (FL-2010; OMEGA Canada, Laval, QC). Over the period of the sampling, the needle valve was adjusted as required to hold the flow rate to within 0.21±0.02 l/min.\nAfter collecting aerosol from the delivery chamber, samples of the polycarbonate membranes were prepared for analysis by scanning electron microscopy (SEM) (S-2500; Hitachi, Japan). For both the CA and CA/magnetite aerosols, three pieces were cut from the membrane, from locations chosen at random, and mounted to SEM stubs using two-sided carbon adhesive tabs. These samples were sputter coated with a thin layer of gold prior to SEM analysis. Images of the samples were taken at 3000× magnification, again from locations chosen at random, and stored digitally.\nFor three SEM images from each of the three membrane samples, the length and diameter of each particle was manually measured using digital image analysis software (Scion Image; Scion Corporation, Frederick, Md.). The particles were assumed to lie parallel to the face of the membrane. Particle sizing rules were similar to those established for asbestos samples by Platek et al. (1992). Each particle was marked immediately after being sized so as to avoid sizing the same particle twice. Where a particle was not perfectly straight, its length was measured as the arc length along its central axis from one tip to the other. Diameter was measured perpendicular to the central axis at the midpoint along a particle's length, except in rare cases where the particle had two regions of clearly different diameter. In these latter cases, an average of the two diameters was taken. Overlapping particles were sized separately only if both ends of each particle were clearly visible.\nAfter sizing, the volume of each particle was calculated, under the approximation that the particles were cylindrical. Volume-weighted size distributions were then fit with lognormal curves by nonlinear regression to yield a volume median length (VML), volume median diameter (VMD), and geometric standard deviations in both length and diameter (σL and σD), respectively) for each SEM image. In addition, the particle number concentration in the sampled air was calculated for each image from the volume of sampled air, and the ratio between the image area and the total area of the membrane exposed to the aerosol. The mean values of these parameters for the three different membrane samples were compared by one-way ANOVA for independent samples in order to gauge their variation over different locations on the membrane."}
{"smiles": "O=C(O)c1cc(=O)c2c(OCC(O)COc3cccc4oc(C(=O)O)cc(=O)c34)cccc2o1", "note": "[CA, cromoglycic acid]", "values": [{"measurement": "VMD (volume median diameter)", "setting": "aerosol sampled from delivery chamber", "result": "0.34 ± 0.02", "unit": "μm"}, {"measurement": "N (number of particles per unit volume of sampled air)", "result": "(2.0 ± 0.3) × 10^4 cm^−3"}, {"measurement": "VML (volume median length)", "result": "2.0 ± 0.4", "unit": "μm"}, {"measurement": "σD (geometric standard deviation for diameter)", "result": "1.5 ± 0.1"}, {"measurement": "σL (geometric standard deviation for length)", "result": "2.1 ± 0.1"}]}
